Assay results: patent publication US6969449B2, “Multi-well plate and electrode assemblies for ion channel assays” (Vertex Pharmaceuticals (San Diego) LLC, priority 2000, dated 2005)

Tests used:
HL5 cells = type: cell-based
IRK1 channel = IRK1 channel (Rattus norvegicus, UniProt Q64273)
Chain of IRK1 channel (Q64273 whole entry): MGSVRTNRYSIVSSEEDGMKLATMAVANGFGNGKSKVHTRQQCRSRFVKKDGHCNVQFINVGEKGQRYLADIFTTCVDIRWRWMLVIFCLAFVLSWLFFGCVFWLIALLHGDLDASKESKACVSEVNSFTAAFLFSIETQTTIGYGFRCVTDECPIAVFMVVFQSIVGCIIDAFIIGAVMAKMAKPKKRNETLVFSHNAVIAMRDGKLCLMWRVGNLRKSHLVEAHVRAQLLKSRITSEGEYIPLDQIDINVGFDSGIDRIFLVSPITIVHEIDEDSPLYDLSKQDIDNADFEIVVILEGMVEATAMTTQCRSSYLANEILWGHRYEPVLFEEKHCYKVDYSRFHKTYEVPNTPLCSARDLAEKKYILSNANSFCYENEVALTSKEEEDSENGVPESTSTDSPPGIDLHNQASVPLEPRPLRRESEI

CC[N+](CC)(CC)CC [TEA, Tetraethylammonium]
block of response to electrical stimulation (wild-type HEK-293 cells): partially blocks the response

NC1=N[C@H](O)[C@H]2[C@H]3O[C@]4(O)O[C@@H]([C@@H](O)[C@@]2(N1)[C@@H]4O)[C@]3(O)CO [TTX, tetrodotoxin]
block of the positive response (HL5 cells): partially blocks the positive response | effect on sustained signal above 50 V/cm (HL5 cells): unaffected

[Ba+2].[Cl-].[Cl-] [barium chloride]
voltage change during stimulation with barium block (IRK1 channel): no detectable voltage change
